Assay results: PubChem BioAssay (NCI)
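These data come from cells grown in 96-well plates and exposed to compound for 48 hours at five concentrations. Definition used: TGI = concentration required for complete inhibition of growth.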

Key:
Experiment in all cases: NCI anticancer screen, dose series, 48 h
[1] = tested on: A498 renal
[2] = tested on: BT-549 breast
[3] = tested on: CAKI-1 renal
[4] = tested on: DU-145 prostate
[5] = tested on: EKVX NSCLC
[6] = tested on: HCT-15 colon
[7] = tested on: HT29 colon
[8] = tested on: MCF7 breast
[9] = tested on: MDA-N
[10] = tested on: MOLT-4 leukemia
[11] = tested on: OVCAR-3 ovarian
[12] = tested on: PC-3 prostate
[13] = tested on: SF-268 CNS
[14] = tested on: SK-OV-3 ovarian
[15] = tested on: SW-620 colon
[16] = tested on: UACC-257 melanoma
[17] = tested on: SNB-75 CNS
[18] = tested on: RXF 393 renal

Compound	TGI [1] [µM]	TGI [2] [µM]	TGI [3] [µM]	TGI [4] [µM]	TGI [5] [µM]	TGI [6] [µM]	TGI [7] [µM]	TGI [8] [µM]	TGI [9] [µM]	TGI [10] [µM]	TGI [11] [µM]	TGI [12] [µM]	TGI [13] [µM]	TGI [14] [µM]	TGI [15] [µM]	TGI [16] [µM]	TGI [17] [µM]	TGI [18] [µM]
COC(=O)c1cc(/C=C\c2cc(OC)ccc2OC)ccc1OC	> 100	> 100	> 100	> 100	88.9	> 100	> 100	84.4	> 100	41.7	65.8	> 100	> 100	83.6	> 100	96.5		
CN(C)/C=C/C=C(/C=N/S(=O)(=O)C(F)(F)F)C1C=CN(S(=O)(=O)C(F)(F)F)C=C1	88.8	70.1	76.6	> 100	87.2	57.8	75.2		> 100	71	98		> 100	94	> 100	77.7	50.6	
C=CCNC(=S)/N=C/C(C(=O)Nc1ccccc1C)=C(\C)O		> 100	> 100	> 100	> 100	> 100	> 100	> 100	> 100	> 100	> 100	> 100	> 100	> 100	> 100	> 100		> 100
O=C1c2cc([N+](=O)[O-])sc2C(=O)c2c([N+](=O)[O-])csc21	3.34	1.93	2.48	3.07	3.4	4.41			0.363	0.484		3.09	0.994	3.09	1.07	1.31	3.18	1.76
Cc1c(O)c(=O)ccn1CCc1ccc(O)cc1		> 100	32	> 100	93.3	> 100	> 100	58.2	> 100	> 100	63.4	> 100	33.3	> 100	> 100	54.8		
COc1ccccc1NC(=S)N/N=C/c1cccc(C)n1	69.7	> 100	74.7	> 100	> 100	> 100	> 100	> 100	> 100	> 100	> 100	> 100	> 100	> 44.4	> 100	> 100	53.5	
O=C(O)c1ccc(N/C(=C(/C(Cl)=C(Cl)Cl)[N+](=O)[O-])n2nnc3ccccc32)cc1	> 100	> 100	> 100		> 100	> 100	> 100	> 100	> 100	> 100	> 100	> 100	> 100	> 100	> 100	> 100		
O=C(Cc1ccccc1)NN1C(=O)/C(=C\c2ccccc2O)SC1=Nc1ccccc1	> 100	> 100		> 100	> 100	> 100	> 100	> 100	> 100	> 100	> 100		> 100	> 100	> 100	> 100	> 100	> 100
COc1ccc(-n2cnc3c(NC(Cc4ccccc4)C(=O)O)ncnc32)cc1 (centres undefined)	> 100	> 100	> 100	> 100	> 100	> 100	> 100	> 100	> 100		> 100	> 100	> 100	> 100	> 100	> 100	> 100	
O=S(=O)(O)c1ccc2c(N=Nc3ccc(Sc4ccc(N=Nc5c(O)ccc6cc(S(=O)(=O)O)ccc56)cc4)cc3)c(O)ccc2c1		> 100	> 100	> 100	> 100	> 100	> 100	> 100	> 100	> 100	> 100	> 100	> 100	> 100	> 100	> 100		> 100
c1cc2c(cc1C1=NCCN1)c1cc(C3=NCCN3)ccc1n2CC1CCCCC1	> 100	41.9	> 100	77.1	69.2	> 100	> 100		> 100	34.8	> 100	> 100	22.2	81.8	> 100	59.3	30.6	> 100
COc1ccc2c(c1)CCC/C2=N\NS(=O)(=O)c1c(C)cc(C)cc1C	77	77.2	> 100	68.1	98.5	95.3	43.5	> 100	> 100	66.1	> 100	> 100			90.8	> 100	58.9	
CCOC(=O)C(C(=O)COC(C)(C)C)[C@@H]1C=C[C@H](OC(C)=O)C1 (some centres undefined)	> 100	> 100	> 100		> 100	> 100	> 100	> 100	> 100	> 100	> 100	> 100	> 100	> 100	> 100	> 100	> 100	
CC(=O)OCC1OC(n2c(-c3ccccc3)c(N=Nc3ccc(C)cc3)c(C)c(C#N)c2=S)C(OC(C)=O)C(OC(C)=O)C1OC(C)=O (centres undefined)	18.4	19	64.5	> 100		86.6	> 100	> 100	74.9	55.2	64.7		76.6		11.4	> 100		50.7
